# According to patent US20060167083A1, “Therapeutic methods and compositions involving isoflav-3-ene and isoflavan structures” (priority 2002, published 2006):
# Like-named read-outs stand apart in the source and are kept apart here.
# Legend:
# Type in all cases: cell-based
# leukaemic cell line K562 = assay: Anti-proliferative effect on K562; conditions: Homo sapiens
# leukaemic cell line HL60 = assay: Anti-proliferative effect on HL60; conditions: Homo sapiens, HL-60
# [1] = test system: human cervical carcinoma (HeLa); assay: HeLa cell apoptosis; conditions: 10 μm
# colon cancer line HT29 = assay: Anti-proliferative effect on HT29; conditions: Homo sapiens, HT-29
# [2] = test system: human prostatic adenocarcinoma cell line LNCaP; assay: Proliferation of LNCaP cells, MTT assay
# Method: Proliferation assay: HUVEC were seeded at 3×10^3 cells per gelatin-coated microtitre well and grown in complete medium for 3 days. Dehydroequol (De) was added 3 hours after plating. Proliferation was measured using the MTT assay (Promega, Wis., USA) and is given as the rate of proliferation over the 3 days±SEM of quadruplicate determinations for each group. Proliferation of LNCaP cells was determined using the MTT assay. Cells were seeded at 2.5×10^3 cells per microtitre well. De was added 4 days after plating and assayed after a further 5 days of growth. Cell viability is expressed as a percentage of control untreated cells.
compound,measurement,setting,value
"Oc1ccc(C2=Cc3ccc(O)cc3OC2)cc1 [Dehydroequol, 4′,7-dihydroxyisoflav-3-ene]",IC50,leukaemic cell line K562,3 µg/mL
same,IC50,leukaemic cell line HL60,1.5 µg/mL
same,apoptosis of HeLa cells,[1],leading to HeLa cell apoptosis
same,IC50,colon cancer line HT29,15 µg/mL
same,IC50,"[2]; LNCaP, read-out: IC50 anti-proliferative",1.5 µg/mL
same,IC50,"[2]; LnCaP, n=3 separate experiments, read-out: In vitro cytotoxicity IC50",4.4 µM
